Experimental data published in PMC12046717 (Acta Neuropathologica Communications, 2025).

Columns and labels:
human CYP3A4 = settings: cited from earlier work
[1] = parameters: method as in PMID 31658955; settings: cited from earlier work
[2] = tested on: SW1573-FmC intracranial tumors; test: Pharmacodynamic immunohistochemistry of brain tumors; format: in vivo, mice; settings: SW1573-FmC xenograft, 3 days treatment
Description: Formalin-fixed paraffin-embedded Sects. (7-μm thickness) were subjected to immunohistochemistry according to the methods described previously. Primary antibodies used included those directed at: p-ERK (CST), p-Rb (CST), Ki67 (Dako, MIB1) and Cleaved caspase 3 (CST, 9661). Immuno-positive cells and negative cells within tumor tissues were counted and the fraction of positive cells determined.

human p-gp = human p-gp ref 6, 34; cited from earlier work
[3] = tested on: caspase 3/7 in SW1573 cells; test: Caspase 3/7-Glo cell death assay; format: cell-based, human; settings: 48 h, 1,000 nM adagrasib, 1,000 nM abemaciclib, alone or combined
Description: (§1) For the caspase 3/7 assay, differences in luminescence signals (from control) were determined using One-Way ANOVA. Differences in BLI radiance were tested for statistical significance using the One-Way ANOVA comparison. Statistical comparisons between two groups were considered significant when the adjusted P value was below 0.05 (P < 0.05). Kaplan–Meier analysis and log-rank test were used for the analysis of animal overall survival, comparing the groups.

H2122 cells [4] = test: Flow cytometry cell cycle analysis; format: cell-based, human; settings: 24 h drug exposure
Description: (§2) Cells were harvested, washed with PBS, and fixed in 2% paraformaldehyde. After the samples were prepared for analysis, fixed cells were resuspended in media and incubated with Vybrant DyeCycle Violet stain (ThermoFisher) for 30 min at 37 °C while protected from light. Flow cytometry was conducted using LSR II Cytometer (BD Biosciences) and analysis was done with FlowJo software and the Dean Jett-Fox algorithm.

SW1573 cells [5] = test: Flow cytometry cell cycle analysis; format: cell-based, human; settings: 24 h drug exposure
Description: as §2

[6] = tested on: phospho-ERK (p-ERK) in SW1573 cells; test: Western blot of phospho-ERK; format: cell-based, human; settings: 48 h, 1,000 nM adagrasib and/or 1,000 nM abemaciclib
[7] = Pharmacokinetic study, plasma and brain concentration by LC-MS/MS; settings: H2122-FmC and SW1573-FmC tumor-bearing mice, oral adagrasib 75 mg/kg BID or abemaciclib 50 mg/kg QD for three days, 1 h after last dose
SW1573 cells [8] = test: CyQUANT cell proliferation assay; format: cell-based; settings: Homo sapiens, SW1573, 120 h
Description: (§3) Human NSCLC cell lines, SW1573 and H2122 cells, were obtained from the American Type Culture Collection. Both cell lines carry a KRAS G12C mutation and CDKN2A homozygous deletion. The cell lines were authenticated by short tandem fingerprinting in 2022 and periodically tested to be Mycoplasma-free. H2122 cells were cultured in RPMI-1640 supplemented with 10% fetal bovine serum. SW1573 cells were maintained in DMEM supplemented with 5% FBS. Both cell lines were cultured at 37 °C in a 5% CO2-humidified atmosphere and passaged when they reached 80–90% confluence. Cells were transduced with a lentivirus vector carrying cDNA coding for firefly luciferase and mCherry to generate SW1573-FmC and H2122-FmC for in vivo studies.

SW1573-FmC cells = test: CyQUANT cell proliferation assay, FmC-transduced cells; format: cell-based; settings: Homo sapiens, 120h drug exposure
Description: as §3, with “studies. […]” for “studies.”
(§4) cell viability of firefly-luciferase and mCherry (FmC)-transduced NSCLC cells.
(§5) A, Image representing cell line transduction procedures, involving overnight exposure with a lentivirus vector expressing Firefly luciferase and mCherry. B, C, CellTiter-Glo and CyQUANT […]
(§6) Highest Single Agent model analysis in SW1573-FmC (D) and H2122-FmC (E) cell lines (96h […]
(§7) HSA synergy and antagonism

H2122-FmC cells = test: as above; format: cell-based; settings: Homo sapiens, 120h drug exposure
Description: as §3, with “studies. […]” for “studies.”
as §4, §5, §6, §7

[9] = clinically ref 23; cited from earlier work
[10] = tested on: SW1573-FmC intracranial tumors; test: Intracranial xenograft efficacy study (BLI, survival, body weight); format: in vivo, female nude (athymic) mice; settings: SW1573-FmC model
Description: (§8) All the animal studies were conducted in compliance with all applicable regulations and guidelines of the Institutional Animal Care and Use Committee. Six-to-eight-week-old female nude (athymic) mice were obtained from Charles River Laboratory and maintained under pathogen-free conditions, with food and water provided ad libitum. Mice were implanted intracranially with SW1573-FmC (2 × 10^5 in 2 μL serum-free media) or H2122-FmC cells (1.5 × 10^5 in 2 μL serum-free media) in the right striatum region under general anesthesia using stereotactic procedures as previously described. Animal health was monitored daily.
(§9) Animals were humanely euthanized when > 20% body weight loss or > 15% body weight loss plus neurological signs was noted. Survival data were collected for each group and analyzed using the Kaplan–Meier method. Survival duration by group was tested for statistical significance using the Gehan-Breslow-Wilcoxon test with False Discovery Rate correction. Statistical comparisons were considered significant when the adjusted P value was below 0.05 (P < 0.05).
(§10) Animals were injected intraperitoneally with luciferin (150 mg/kg, 0.01 mL/g) based on body weight and anesthetized using 1–2% isoflurane in oxygen at 1–2 L/minute. Images were acquired beginning at 7 min after luciferin injection for three time points (7, 15, and 30 min). Region of interest (ROI) analysis was completed on BLI images using AURA software (Spectral Instrument Imaging). BLI images were generated by overlaying BLI signals for each animal onto their respective white-light images for anatomic reference. Brain ROIs were generated using a fixed area circle and were placed based on the BLI signal in the relevant area, using the photographic anatomical reference images. BLI signals in images were scaled in units of radiance (photons per second per […] per steradian). Prism 9 software (Graph Pad) was used to generate relevant plots based on the in vivo quantification.
as §1

[11] = tested on: H2122-FmC intracranial tumors; test: as above; format: in vivo, female nude (athymic) mice; settings: H2122-FmC model
Description: as §8, §9, §10, §1

[12] = tested on: p-Rb (Ser807/811) in H2122 cells; test: Western blot of phospho-Rb; format: cell-based, human; settings: 24 h exposure
Description: (§11) Cells and tissues were lysed in RIPA lysis buffer (Pierce). The protein concentration was measured using Bradford assay (BioRad). Protein lysates were separated by Mini-PROTEAN TGX gel electrophoresis (BioRad) and subsequently transferred to PVDF membranes (BioRad) for immunoblotting analysis. The membrane was blocked with 5% non-fat skim milk in Tris-buffered saline with tween. Incubation in diluted primary antibodies was conducted overnight and diluted horseradish peroxidase-conjugated secondary antibodies were subsequently applied. Immunoreactive bands were detected using ECL substrate reagent (BioRad), and the membrane was developed using a ChemiDoc XRS + system (BioRad). Primary antibodies used were against: phospho-ERK (Cell Signaling Technology (CST), 4370), ERK (CST, 9102), phospho-Rb (Ser807/811, CST, 8516), β-actin (CST, 3700), and vinculin (Millipore Sigma, 05–386).

[13] = tested on: p-Rb (Ser807/811) in SW1573 cells; test: Western blot of phospho-Rb; format: cell-based, human; settings: 24 h exposure
Description: as §11

H2122 cells [14] = test: CyQUANT cell proliferation assay; format: cell-based, human; settings: 120 h drug exposure
Description: as §3

[15] = tested on: progressive BM with CDK pathway alterations; settings: patients with progressive BM with CDK pathway alterations ref 21; cited from earlier work

C=C(F)C(=O)N1CCN(c2nc(OC[C@@H]3CCCN3C)nc3c2CCN(c2cccc4cccc(Cl)c24)C3)C[C@@H]1CC#N [adagrasib]
CYP3A4 interaction (human CYP3A4): time-dependent inhibition of human CYP3A4
Half-life [1]: 24 h
Cleaved caspase 3 (C-Cas3) positivity in tumor (IHC) [2]: trend of increased positivity
p-ERK-positive cells in tumor (IHC) [2]: decrease of p-ERK-positive cells
p-Rb-positive cells in tumor (IHC) [2]: decreased p-Rb-positive cells
P-gp-mediated efflux interaction (human p-gp): substrates and inhibitors of human p-gp-mediated efflux

CCN1CCN(Cc2ccc(Nc3ncc(F)c(-c4cc(F)c5nc(C)n(C(C)C)c5c4)n3)nc2)CC1 [abemaciclib]
CYP3A4 interaction (human CYP3A4): substrate of CYP3A4
Caspase 3/7 activity [3]: did not significantly provoke activation of caspase 3/7
Effect on cell cycle phase fractions (H2122 cells [4]): significantly increased the fraction of G1 phase and decreased the fractions of S and G2 phases
Effect on cell cycle phase fractions (SW1573 cells [5]): significantly increased the fraction of G1 phase and decreased the fractions of S and G2 phases
Effect on p-ERK (immunoblot, co-treatment experiment) [6]: modestly suppressed p-ERK
Concentration in brain [7]: 200 to 300 ng/mL
Concentration in plasma [7]: 290 to 400 ng/mL
IC50 (SW1573 cells [8]; 120-h drug exposure): 1 µM
IC50 (SW1573 cells [8]; 120 h drug exposure): 0.833 µM
Cleaved caspase 3 (C-Cas3) positivity in tumor (IHC) [2]: very few C-Cas3 positive cells
p-ERK-positive cells in tumor (IHC) [2]: decreased p-ERK-positive cells
p-Rb-positive cells in tumor (IHC) [2]: modestly decreased P-Rb immunopositivity
IC50 (SW1573-FmC cells): 1 µM
IC50 (H2122-FmC cells): 0.518 µM
CSF versus plasma concentrations [9]: comparable concentrations in the CSF and plasma
Overall survival (Kaplan–Meier) ([10]; 5-week treatment, animals with pre-treatment spinal disease excluded): did not show survival benefit
Overall survival (Kaplan–Meier), all animals included ([10]; comparison of the groups, including animals with spinal disease): No statistical significance
BLI signal intensity (radiance) vs vehicle ([10]; day 40, adagrasib 75 mg/kg BID, abemaciclib 50 mg/kg QD, animals with pre-treatment spinal disease excluded): lower average BLI compared to the vehicle, without statistical significance
Animal survival (Kaplan–Meier) vs control ([11]; 5-week treatment, adagrasib 75 mg/kg BID, abemaciclib 50 mg/kg QD): no survival efficacy
BLI post-treatment signals vs control ([11]; day 40, no statistical significance): signals comparable to the control
Effect on p-Rb (Ser807 and Ser811, immunoblot) [12]: dose-dependent inhibition of p-Rb
Effect on p-Rb (Ser807 and Ser811, immunoblot) [13]: dose-dependent inhibition of p-Rb
IC50 (H2122 cells [14]): 0.626 µM
IC50 (H2122 cells [14]; Homo sapiens, NCI-H2122, 120 h): 0.6 µM
P-gp-mediated efflux interaction (human p-gp): substrates and inhibitors of human p-gp-mediated efflux

CC(=O)c1c(C)c2cnc(Nc3ccc(N4CCNCC4)cn3)nc2n(C2CCCC2)c1=O [palbociclib]
Intracranial activity in patients [15]: demonstrated intracranial activity
